Measured values as given in US20170252442A1, “PHOTOHEXER COMPOUNDS AND PHARMACEUTICAL COMPOSITION AND USE THEREOF” (RAINBOW PHARMATECH LLC, priority 2014, published 2017).

Tests used:
Eca-109 cells = assay: MTT assay, photodynamic therapy on Eca-109 cells; assay type: cell-based, human
Text: (§1) The cells in logarithmic growth phase were collected and inoculated on 24-well culture plates. When reaching 70%-80% confluence, cells were divided randomly into the following groups: control (the parallel control group without photosensitizer and irradiation), irradiation (irradiation treatment alone without photosensitizer); (photosensitizer treatment alone without irradiation), photodynamic treatment (treatment by photosensitizer in combination with irradiation). For the photosensitizer alone treatment group and photodynamic treatment group, an appropriate amount of Photohexer-1 (P-1) or Photohexer-2 (P-2) was respectively added away from light to give a final concentration of 0.8, 1.6, 3.2, 6.4 μM. Each group set 3 replicates. Cells were incubated with the active agent, different treatments were carried out according to the grouping. […] After treatment and digestion of each group of cells, it was inoculated into a 96-well plate at 100 μL/well, and four wells were set for each treatment. MTT assay was performed after 24 h from inoculation: 20 μL MTT solution was added to each well under the condition away from light, and the culture was continued for 4 hours. 150 μL DMSO was added to each well after discarding the supernatant. After 15 min of dissolution, the absorbance value (OD value) was measured using a microplate reader and the relative survival rate of cells was calculated according to the following formula: […]

Caco2 cells = assay: MTT assay, photodynamic therapy on Caco2 cells; assay type: cell-based, human
Text: as §1

7721 cells = assay: MTT assay, photodynamic therapy on 7721 cells; assay type: cell-based, human
Text: as §1

the cell lines = assay: MTT assay, summary over the cell lines (photosensitizer alone); assay type: cell-based; settings: without light irradiation; selected drug concentration range (0.8-6.4 μM)
Text: The cells in logarithmic growth phase were collected and inoculated on 24-well culture plates. When reaching 70%-80% confluence, cells were divided randomly into the following groups: control (the parallel control group without photosensitizer and irradiation), irradiation (irradiation treatment alone without photosensitizer); (photosensitizer treatment alone without irradiation), photodynamic treatment (treatment by photosensitizer in combination with irradiation). For the photosensitizer alone treatment group and photodynamic treatment group, an appropriate amount of Photohexer-1 (P-1) or Photohexer-2 (P-2) was respectively added away from light to give a final concentration of 0.8, 1.6, 3.2, 6.4 μM. Each group set 3 replicates. Cells were incubated with the active agent, different treatments were carried out according to the grouping. Three different light intensities were selected for the photodynamic treatment group, which were 2.6, 5.2 and 12.4 J/cm^2, respectively. After treatment and digestion of each group of cells, it was inoculated into a 96-well plate at 100 μL/well, and four wells were set for each treatment. […] After 15 min of dissolution, the absorbance value (OD value) was measured using a microplate reader and the relative survival rate of cells was calculated according to the following formula: […]

SW-480 cells = assay: MTT assay, photodynamic therapy on SW-480 cells; assay type: cell-based, human
Text: as §1

[1] = 0.8 μM alone treatment, without irradiation
[2] = 0.8 μM combined with 2.6 J/cm^2 light irradiation
[3] = 0.8 μM combined with 5.2 J/cm^2 light irradiation
[4] = 0.8 μM combined with 10.4 J/cm^2 light irradiation
[5] = 1.6 μM alone treatment, without irradiation
[6] = 1.6 μM combined with 2.6 J/cm^2 light irradiation
[7] = 1.6 μM combined with 5.2 J/cm^2 light irradiation
[8] = 1.6 μM combined with 10.4 J/cm^2 light irradiation
[9] = 3.2 μM alone treatment, without irradiation
[10] = 3.2 μM combined with 2.6 J/cm^2 light irradiation
[11] = 3.2 μM combined with 5.2 J/cm^2 light irradiation
[12] = 3.2 μM combined with 10.4 J/cm^2 light irradiation
[13] = 6.4 μM alone treatment, without irradiation
[14] = 6.4 μM combined with 2.6 J/cm^2 light irradiation
[15] = 6.4 μM combined with 5.2 J/cm^2 light irradiation
[16] = 6.4 μM combined with 10.4 J/cm^2 light irradiation

## C=Cc1c(C)c2cc3nc(cc4[nH]c(cc5nc(cc1[nH]2)C(C)=C5C(C)OCCCCCC)c(C)c4CCC(=O)[O-])C(CCC(=O)[O-])=C3C.[Na+].[Na+] (stereo not drawn) [Photohexer P-2, 4-(1-hexyloxyethyl)-6,7-bis(propionatesodium)-1,3,5,8-tetramethyl-2-vinylporphyrin]
Eca-109 cells; [1]
  Cell survival rate: 100.38 ± 4.27%
Eca-109 cells; [2]
  Cell survival rate: 96.96 ± 3.87%
Eca-109 cells; [3]
  Cell survival rate: 75.83 ± 4.22%
Eca-109 cells; [4]
  Cell survival rate: 59.89 ± 4.24%
Eca-109 cells; [5]
  Cell survival rate: 95.76 ± 3.16%
Eca-109 cells; [6]
  Cell survival rate: 86.66 ± 2.94%
Eca-109 cells; [7]
  Cell survival rate: 70.66 ± 3.78%
Eca-109 cells; [8]
  Cell survival rate: 51.36 ± 3.67%
Eca-109 cells; [9]
  Cell survival rate: 94.07 ± 2.58%
Eca-109 cells; [10]
  Cell survival rate: 79.33 ± 2.24%
Eca-109 cells; [11]
  Cell survival rate: 56.40 ± 2.33%
Eca-109 cells; [12]
  Cell survival rate: 40.90 ± 2.34%
Eca-109 cells; [13]
  Cell survival rate: 84.49 ± 1.32%
Eca-109 cells; [14]
  Cell survival rate: 83.57 ± 1.12%
Eca-109 cells; [15]
  Cell survival rate: 33.91 ± 1.07%
Eca-109 cells; [16]
  Cell survival rate: 33.91 ± 1.01%
Caco2 cells; [1]
  Cell survival rate: 99.09 ± 4.27%
Caco2 cells; [2]
  Cell survival rate: 98.47 ± 3.69%
Caco2 cells; [3]
  Cell survival rate: 98.57 ± 4.26%
Caco2 cells; [4]
  Cell survival rate: 73.07 ± 3.86%
Caco2 cells; [5]
  Cell survival rate: 98.50 ± 3.63%
Caco2 cells; [6]
  Cell survival rate: 88.31 ± 2.67%
Caco2 cells; [7]
  Cell survival rate: 77.26 ± 3.66%
Caco2 cells; [8]
  Cell survival rate: 58.33 ± 2.60%
Caco2 cells; [9]
  Cell survival rate: 94.12 ± 2.54%
Caco2 cells; [10]
  Cell survival rate: 75.55 ± 2.01%
Caco2 cells; [11]
  Cell survival rate: 63.08 ± 2.35%
Caco2 cells; [12]
  Cell survival rate: 47.94 ± 2.31%
Caco2 cells; [13]
  Cell survival rate: 88.45 ± 1.44%
Caco2 cells; [14]
  Cell survival rate: 64.87 ± 1.13%
Caco2 cells; [15]
  Cell survival rate: 43.88 ± 1.14%
Caco2 cells; [16]
  Cell survival rate: 37.06 ± 1.54%
Caco2 cells; dependent on concentration and light intensity
  killing effect of photodynamic therapy: good killing effect
7721 cells; [1]
  Cell survival rate: 102.15 ± 4.07%
7721 cells; [2]
  Cell survival rate: 98.29 ± 4.01%
7721 cells; [3]
  Cell survival rate: 96.77 ± 3.76%
7721 cells; [4]
  Cell survival rate: 95.91 ± 3.95%
7721 cells; [5]
  Cell survival rate: 101.37 ± 3.36%
7721 cells; [6]
  Cell survival rate: 94.78 ± 3.88%
7721 cells; [7]
  Cell survival rate: 92.15 ± 3.64%
7721 cells; [8]
  Cell survival rate: 91.44 ± 3.73%
7721 cells; [9]
  Cell survival rate: 100.64 ± 2.98%
7721 cells; [10]
  Cell survival rate: 92.15 ± 3.76%
7721 cells; [11]
  Cell survival rate: 89.23 ± 3.35%
7721 cells; [12]
  Cell survival rate: 78.32 ± 3.19%
7721 cells; [13]
  Cell survival rate: 98.14 ± 2.53%
7721 cells; [14]
  Cell survival rate: 88.02 ± 3.59%
7721 cells; [15]
  Cell survival rate: 82.25 ± 2.79%
7721 cells; [16]
  Cell survival rate: 71.15 ± 2.91%
7721 cells; alone, without irradiation
  toxicity alone: no significant toxicity
7721 cells; combination with a certain amount of light
  cell toxicity with light: stronger cell toxicity
The cell lines
  cytotoxicity of alone treatment: did not produce significant cytotoxicity
SW-480 cells
  photodynamic activity compared between P-1 and P-2: better activity than P-1
SW-480 cells; [1]
  Cell survival rate: 101.79 ± 4.08%
SW-480 cells; [2]
  Cell survival rate: 100.79 ± 3.76%
SW-480 cells; [3]
  Cell survival rate: 96.70 ± 3.63%
SW-480 cells; [4]
  Cell survival rate: 94.70 ± 4.16%
SW-480 cells; [5]
  Cell survival rate: 96.97 ± 4.27%
SW-480 cells; [6]
  Cell survival rate: 91.72 ± 2.89%
SW-480 cells; [7]
  Cell survival rate: 87.06 ± 2.51%
SW-480 cells; [8]
  Cell survival rate: 75.11 ± 3.24%
SW-480 cells; [9]
  Cell survival rate: 68.15 ± 2.78%
SW-480 cells; [10]
  Cell survival rate: 63.40 ± 2.24%
SW-480 cells; [11]
  Cell survival rate: 53.01 ± 1.99%
SW-480 cells; [12]
  Cell survival rate: 43.68 ± 2.54%
SW-480 cells; [13]
  Cell survival rate: 57.31 ± 2.33%
SW-480 cells; [14]
  Cell survival rate: 45.36 ± 1.22%
SW-480 cells; [15]
  Cell survival rate: 42.56 ± 1.06%
SW-480 cells; [16]
  Cell survival rate: 27.83 ± 1.13%
